The source of these data is article PMC8861431, “Tissue Pharmacokinetic Properties and Bystander Potential of Hypoxia-Activated Prodrug CP-506 by Agent-Based Modelling” (Frontiers in Pharmacology, 2022).

The test system of data set [1] is POR-overexpressing HCT-116 cells (POR-R) monolayer. The settings on record: cited from earlier work.
Data set [2] has the same test system. Briefly: Cellular uptake studies / cellular PK model. The class given is in vitro ADME, human. The settings on record: aerobic 21% O2, Co range 0.3–30 µM.
The conditions of data set [3]: ref Van Der Wiel et al., 2021; cited from earlier work.
Data set [4] deals with spheroid co-cultures of POR-R activator and PORko-G target cells. Briefly: Spheroid growth delay assay. The settings on record: Homo sapiens, 4 h, 4 h exposure, anoxic, read-out: IC50 for inhibition of spheroid growth. Type of data set: cell-based. As for the experimental part: Spheroid cultures were established by seeding 3 x 10^3 cells with 100 µl medium into ultra-low attachment, round bottom 96-well plates (Corning Inc, Corning, NY). Plates were briefly centrifuged (200 g, 5 min) to facilitate cell aggregation and grown in a standard incubator (37°C, 21% O2, 5% CO2) for 4 days before experiments. The culture medium was then aspirated, and the established spheroids taken into a H2/Pd-catalyst anaerobic chamber. Spheroids were washed three times with anoxia pre-equilibrated medium and left to settle for 1 h in a humidified 37°C incubator. Spheroids were removed from the anaerobic chamber after a 4 h drug exposure and washed three times with fresh culture medium. The growth of representative spheroids was monitored for 10 days using a published method of image analysis for volume determination ([Mao et al., 2018]). The remainder were enzymatically dissociated and plated at serial dilutions in 6-well plates containing 2 µM puromycin or 1 mg/ml geneticin for positive selection of POR-R and PORko-G cells, respectively. Colonies were visualized after 10 days of drug-free proliferation by staining with methylene blue (2 g/L in 50% aqueous ethanol) for 30 min. The number of colonies with at least 50 cells was manually counted to determine the plating efficiency. The surviving fraction was determined as the ratio of the plating efficiency of treated cells to that of the controls.

The subject of another data set is HCT-116 WT cell line. Nature of the data set: Anti-proliferative IC50 assay (SRB). The class given is cell-based, human. The following applies: for IC50: Homo sapiens, 4 h exposure. An excerpt:
(§1) The HCT-116 cell line was purchased from the American Type Culture Collection (Manassas, VA). A POR-overexpressing clone (POR-R) was generated by transfecting the parental cell line with a pBRP expression vector encoding an N-terminal truncated soluble version of the human POR gene ([Foehrenbacher et al., 2013a]; [Guise et al., 2020]). Ectopic expression is driven by the human cytomegalovirus (CMV) major immediate-early promoter. Downstream of POR is a human elongation factor-1 alpha (EF-1 alpha) promoter, which drives expression of mRuby and the puromycin resistance gene pac (puromycin N-acetyltransferase). A POR-null clone (PORG-ko) was generated as previously described ([Su et al., 2013]). POR-null clones were then transfected with a pEGFP-N1 plasmid encoding enhanced green fluorescent protein (EGFP) and geneticin resistance to permit identification upon co-culture ([Hong et al., 2018b]). Cell lines were maintained by weekly subculture in T-flasks containing alpha minimal essential medium (αMEM) with 5% foetal bovine serum (FBS) for a maximum of 24 passages or 90 days (whichever came first). The culture medium was further supplemented with 1 mg/ml geneticin or 2 µM puromycin for the routine maintenance of the POR-null and POR-overexpressing clones respectively. All cultures were re-established from STR-authenticated, mycoplasma negative frozen stocks.
(§2) Cells (700–1,000 per well) were seeded with 100 µl culture medium into 96-well plates and left to attach for 2 h in a humidified 37°C incubator. Compounds were prepared in culture medium and serially diluted (1:3) in the well volume. Plates were returned to a humidified 37°C incubator for the duration of the drug exposure (4 h). Aerobic experiments were performed under standard tissue culture conditions (21% O2), and the anoxic experiments were performed in parallel in a 5% H2/Pd catalyst anaerobic chamber (Shellab Bactron, Sheldon manufacturing Inc., Cornelius, OR) using pre-equilibrated media and plasticware. All anoxia experiments were conducted using a catalyst-scrubbed anaerobic chamber, unless otherwise specified, with gas oxygen measurements of <1 ppm O2. Cells were then washed three times and left to grow for 96 h before cell density determination using a sulforhodamine B (SRB) assay ([Vichai and Kirtikara, 2006]). To this end, the cells were fixed by layering 50 µl of trichloroacetic acid (40% w/v in MilliQ water) on top of the culture media (150 µl) in each well for 1 h at 4°C. Plates were rinsed under running tap water and stained with 50 µl of SRB (0.4% w/v in MilliQ water containing 1% v/v acetic acid) for 30 min at room temperature. Plates were rapidly destained by rinsing three times in tap water containing 1% (v/v) acetic acid. The stain was solubilized by adding 100 µl of 10 mM unbuffered Tris base to each well with gentle rocking for 1 h. Plates were read on a Biotek ELx808 Absorbance Microplate Reader at 490 nm using KC4 software. The IC50 value (concentration required to reduce staining to 50% of the untreated control on the same plate) for each compound was determined by interpolation using a 4-parameter logistic regression model.

In data set [5] the test system is PORko-G cell line (POR-knockout HCT-116). Nature of the data set: Anti-proliferative IC50 assay (SRB). The class given is cell-based, human. The following applies: for IC50: Homo sapiens, HCT-116, 4 h exposure.
Excerpt: as §1, §2

Data set [6] concerns POR-R cell line (POR-overexpressing HCT-116). Briefly: Anti-proliferative IC50 assay (SRB). The class given is cell-based, human. The following applies: for IC50: Homo sapiens, HCT-116, 4 h exposure.
Excerpt: as §1, §2

The mark [7] stands for this setting: Table 1 footnote d: assumed equivalent to measured metabolites or derived from published estimates for PR-104A metabolites, ref Foehrenbacher et al., 2013a, Hong et al., 2018b.
Setting [8] is: Table S3, fixed to fitted values for downstream metabolites of PR-104 ('metabolite 2'), ref (2,3).
The mark [9] stands for this setting: anoxic <1 ppm O2, 96 h drug-free proliferation, read-out: Anoxic IC50 (anti-proliferative).
Where [10] appears, read: normoxic 21% O2, 96 h drug-free proliferation, read-out: Aerobic IC50 (anti-proliferative).

Read-outs that look alike come from different tables or passages of the source.

In the case of `CCN1CCN(C(=O)c2cc(N(CCCl)CCCl)c(S(C)(=O)=O)cc2N)CC1` [CP-506M-Cl2, (2-Amino-5-(bis(2-chloroethyl)amino)-4-(methylsulfonyl)phenyl)(4-ethylpiperazin-1-yl)methanone], in data set [1] (setting [7]), the “k in: rate constant for transfer from the extracellular to intracellular volume” value was 0.9 ^d min^−1 and the “k out: rate constant for transfer from the intracellular to extracellular volume” value was 0.3 ^d min^−1. Besides, in data set [1] (setting [8]), the “T1/2: time required to reduce the concentration to half its initial value” was 6.6 min, the “kin: rate of transfer from the extracellular to the intracellular compartment” value is 0.9 min⁻¹ and the “kout: rate of transfer from the intracellular to the extracellular compartment” value is 0.3 min⁻¹.

On to `CCN1CCN(C(=O)c2cc(N(CCBr)CCOS(C)(=O)=O)c(S(C)(=O)=O)cc2[N+](=O)[O-])CC1` [CP-506, 2-[(2-bromoethyl)-5-[(4-ethyl-1-piperazinyl)carbonyl]-2-(methylsulfonyl)-4-nitroanilino]ethyl methanesulfonate], for which the “Steady-state Ci/Ce ratio (cell uptake)” value in data set [2] came out at 50 fold. Also, the “O2 concentration above which prodrug activation and cytotoxicity are completely inhibited” value in data set [3] was “above 1 µM O2”. The IC50 in data set [4] (0% activator cells) was over 40 µM; in data set [4] (10% activator cells) it was 13.6 µM; in data set [4] (50% activator cells), 5.6 µM; in data set [4] (100% activator cells) it was 2.4 µM; with HCT-116 WT cell line (setting [9]), 12.8 ± 3.7 µM; in the data set with HCT-116 WT cell line (setting [10]) it was 257 ± 37 µM. Moreover, the IC50 in data set [5] (PORko-G, anoxic <1 ppm O2, 96 h drug-free proliferation, read-out: Anoxic IC50 (anti-proliferative)) was found to be 33.1 ± 5.6 µM; in data set [5] (PORko-G, normoxic 21% O2, 96 h drug-free proliferation, read-out: Aerobic IC50 (anti-proliferative)), 240 ± 26 µM; in data set [6] (setting [9]), 2.5 ± 0.3 µM; in data set [6] (setting [10]) it was 120 ± 13 µM. The “Fold lower IC50 under anoxic vs aerobic conditions” value in the data set with HCT-116 WT cell line (anti-proliferative assay) amounted to 20.1 fold; in data set [5] (PORko-G, anti-proliferative assay), 7.3 fold; in data set [6] (anti-proliferative assay), 48.6 fold. In data set [5] (anti-proliferative assay, anoxia), the “Differential in anoxic sensitivity between PORko-G and POR-R cell lines” value was determined as 13 fold.

In general, IC50 refers to the concentration needed to halve the response being measured.
